Experimental findings from patent US10226452B2, “Benzoxazolone derivatives as acid ceramidase inhibitors, and their use as medicaments” (FONDAZIONE ISTITUTO ITALIANO DI TECNOLOGIA, priority 2014, dated 2019) are described below.

One assay concerns PLC. Description: Cerep enzyme inhibition screen: PLC. The settings on record: mean of two determinations. Type of assay: biochemical. From the text: Compound of Example 25 falling in both Formula (I) and (Ia) was selected to be tested for off-target effects on a set of enzymes that include proteases (aspartic, cysteine, and serine), cyclooxygenases as well as lipoxygenases and group IV phospholipase (sPLA2) (Table 3).

A further assay has as its target cathepsin D (h) (Homo sapiens (Human), UniProt P07339). Briefly: Cerep enzyme inhibition screen: cathepsin D. The settings on record: mean of two determinations, read-out: Inhibitory activity (% Inh. at 10 μM), mean. Type of assay: biochemical. From the text: (§1) Compound of Example 25 falling in both Formula (I) and (Ia) was selected to be tested for off-target effects on a set of enzymes that include proteases (aspartic, cysteine, and serine), cyclooxygenases as well as lipoxygenases and group IV phospholipase (sPLA2) (Table 3). [table]

For the next assay, the target named is MMP-2 (h) (Homo sapiens (Human), UniProt P08253). Briefly: Cerep enzyme inhibition screen: MMP-2. It counts as biochemical. Particulars: mean of two determinations, read-out: Inhibitory activity (% Inh. at 10 μM), mean.
Chain of MMP-2 (h) (P08253 110-660): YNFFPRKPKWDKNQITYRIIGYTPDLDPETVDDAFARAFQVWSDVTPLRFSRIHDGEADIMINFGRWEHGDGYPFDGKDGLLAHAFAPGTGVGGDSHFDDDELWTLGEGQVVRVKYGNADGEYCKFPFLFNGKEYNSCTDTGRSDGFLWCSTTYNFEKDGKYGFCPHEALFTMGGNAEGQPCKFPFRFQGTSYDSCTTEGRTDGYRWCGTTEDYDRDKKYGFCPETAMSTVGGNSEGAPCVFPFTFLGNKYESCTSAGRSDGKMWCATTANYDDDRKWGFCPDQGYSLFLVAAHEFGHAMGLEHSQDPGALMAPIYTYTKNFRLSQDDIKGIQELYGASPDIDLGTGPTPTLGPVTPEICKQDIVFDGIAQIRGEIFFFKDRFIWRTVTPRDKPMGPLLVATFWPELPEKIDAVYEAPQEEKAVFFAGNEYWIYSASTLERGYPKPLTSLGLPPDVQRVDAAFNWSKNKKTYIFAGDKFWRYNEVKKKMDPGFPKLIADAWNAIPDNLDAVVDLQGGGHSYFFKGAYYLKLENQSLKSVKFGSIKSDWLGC
Excerpt: as §1

A further assay relates to Raw264.7 cells. Description: sphingosine and ceramide levels in RAW264.7 cells. Type of assay: cell-based, mouse. The settings on record: 0.1-20 μM, 3 hours. As for the experimental part: Specifically it is reported the concentration response of compound of Example 25 or vehicle (0.1% DMSO in DMEM) on AC activity and ceramide levels in RAW264.7 murine cell line. (A) Intact cells were treated with compound of Example 25 (0.1-20 μM) or vehicle and AC activity was measured 3 hours later in cell lysates. (B-E) Intact cells were exposed to compound of Example 25 (0.1-20 μM) for 3 hours and sphingosine/sphinganine (B), dihydroceramides (C), medium chain ceramides (D), long chain ceramides (E) were quantified. Results are expressed as mean±s.e.m. (n=3). *p<0.05, **p<0.01, ***p<0.001 vs vehicle, two-way ANOVA followed by Dunnet.
Lipids were extracted from mouse tissue lysate with a chloroform/MeOH mixture (2:1 v/v, 3 mL) containing internal standards. The organic phase was collected, dried under nitrogen, and dissolved in chloroform/MeOH (1:3 v/v) for LC-MS analyses. Ceramides, sphingosine and sphinganine were analyzed by LC-MS/MS, using a Waters Acquity UPLC coupled with a Waters Xevo TQMS and interfaced with ESI. […]
Tissue-derived sphingosine and sphinganine were identified by comparison of their LC retention times and MS^2 fragmentation patterns with those of authentic standards (Avanti Polar Lipids). Extracted ion chromatograms were used to quantify sphingosine ([…], m/z 300.5>282.5) and sphinganine standard (C18:0, m/z 303>285). […]

For assay [1], the system named is MAG-hydrolyzing enzymes including MGL, HSL and EL. Briefly: MAG-hydrolysing activity ex vivo in mice. Also on record: species or system mouse. Particulars: 10 mg-kg^−1 intraperitoneal, 3 h after injection. As to the method:
Compound of Example 25 was also tested for its ability to inhibit the hydrolytic degradation of diacylglycerols (DAG) and monoacylglycerols (MAG) in live mice. DAG and MAG hydrolysis is catalyzed by multiple serine lipases, including diacylglycerol lipase (DGL), monoacylglycerol lipase (MGL), hormone-sensitive lipase (HSL), and endothelial lipase. Thus, by monitoring the effects of compound of Example 25 on MAG-hydrolysing activity as well as DAG and MAG levels ex vivo, we can gain important insights as to the ability of the compound to interfere with those lipases in a physiologically relevant setting.
Specifically FIG. 8 evidences the effect of Example 25 or vehicle (DMSO) on MGL activity in brain, liver, fat and heart. MAG-hydrolysing activity was measured 3 h after intraperitoneal injection of compound of Example 25 (10 mg-kg-1). Results are expressed as mean±s.e.m. (n=5).
Tissue was homogenized in ice-cold Tris-HCl (50 mM, pH7.5, 10 vol) containing sucrose (0.32 M). Homogenates were centrifuged at 1,000×g for 10 min, and the supernatants (5 μg of protein) were incubated at 37° C. for 30 min in Tris.HCl (50 mM, pH 7.5, 0.5 mL) containing 10 μM oleoylglycerol (Sigma-Aldrich, St. Louis, Mo.). […] The residues were suspended in 100 μL of chloroform/methanol (1:3, v:v) and analyzed by LC-MS.

For another assay, the system named is MAG levels. Description: MAG levels in mouse tissues. It counts as in vivo. Particulars: mice; 10 mg-kg-1 intraperitoneal; after 3 hours. As to the method: Specifically, the levels of MAGs were quantified after 3 hours after intraperitoneal injection of compound of Example 25 (10 mg-kg-1). Specifically, levels of 16:0 MAG, 18:0 MAG, 18:1 MAG, 22:4 MAG, 22:6 MAG were measured in the brain (a); levels of 16:0 MAG, 18:0 MAG, 18:1 MAG, 22:4 MAG were measured in the liver (b), in fat (c) and in the heart (d). Results are expressed as mean±s.e.m. (n=5).
We homogenized tissue samples (20-30 mg) in methanol (1 mL) containing deuterium-labeled 2-AG (500 pmol) as internal standard (Cayman, Ann Arbor, Mich.). We extracted lipids with chloroform (2 mL) and water (1 mL). The organic phases were dried in a stream of N2, reconstituted in chloroform (2 mL) and fractionated by open-bed silica gel column chromatography as described. The eluded fraction containing 2-AG and anandamide were dried under N2, and residues were suspended in chloroform/methanol (1:3, vol:vol; 100 μL). Analyses were conducted using a liquid chromatography mass spectrometry (LC-MS) apparatus consisting of an Agilent 1100 system and 1946D mass spectrometer detector equipped with ESI interface (Agilent Technologies, Santa Clara, Calif., USA).

SMILES strings stand for the structures. “Also recorded” adds a separate entry of the source.

Chain of cathepsin D (h) (P07339 65-412): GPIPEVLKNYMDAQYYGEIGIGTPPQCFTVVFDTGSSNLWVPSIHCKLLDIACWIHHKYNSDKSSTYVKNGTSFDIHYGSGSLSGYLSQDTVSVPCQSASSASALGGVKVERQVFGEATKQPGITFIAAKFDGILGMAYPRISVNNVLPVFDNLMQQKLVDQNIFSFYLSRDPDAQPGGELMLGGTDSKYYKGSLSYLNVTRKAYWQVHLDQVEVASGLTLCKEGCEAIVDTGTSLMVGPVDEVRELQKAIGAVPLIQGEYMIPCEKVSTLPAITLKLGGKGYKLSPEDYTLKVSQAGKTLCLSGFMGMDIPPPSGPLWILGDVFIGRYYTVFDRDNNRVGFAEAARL

Turning to `O=C(NCCCCc1ccccc1)n1c(=O)oc2cc(-c3ccc(F)cc3)ccc21` [Example 25, 6-(4-Fluorophenyl)-2-oxo-N-(4-phenylbutyl)-1,3-benzoxazole-3-carboxamide], the “Inhibitory activity (% Inh. at 10 μM), mean” value with PLC is reported as −19.7%. The inhibition at 10 µM on cathepsin D (h) turned out to be 67%; at MMP-2 (h), 7.2%. Further, in the assay with Raw264.7 cells, the “di-hydro ceramides and ceramide species levels” value was “intracellular accumulation of various di-hydro ceramides and ceramide species”. The sphingosine levels result with Raw264.7 cells is given as “parallel decrease in sphingosine levels”. Also, the “MAG-hydrolysing activity in brain, liver, fat and heart” value in assay [1] is on record as “did not cause inhibition of MAG-hydrolysing activity; also recorded: no inhibitory activity”. The “levels of the most representative MAGs in brain, liver, fat and heart” value with MAG levels was “remained unchanged”.
